Active and inactive are the calls of the source.
Tests used:
Type in all cases: functional
[1] = target: Cyclin-dependent kinase 8 (Homo sapiens, UniProt P49336); assay: Navigating the Kinome. Panel member name: CDK8
Activin receptor type-1 = Activin receptor type-1 (Homo sapiens, UniProt Q04771); assay: Navigating the Kinome. Panel member name: ACVR1
[2] = target: Tyrosine-protein kinase BTK (Homo sapiens, UniProt Q06187)
[3] = target: Glycogen synthase kinase-3 alpha (Homo sapiens, UniProt P49840);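 also: GSK3A result taken from a broad kinome-wide kinase panel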
[4] = target: Protein kinase C theta type (Homo sapiens, UniProt Q04759); assay: Navigating the Kinome. Panel member name: PRKCQ
[5] = target: Death-associated protein kinase 3 (Homo sapiens, UniProt O43293);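 also: measured as one member of a kinome-wide profiling panel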
[6] = target: Tyrosine-protein kinase JAK3 (Homo sapiens, UniProt P52333)
[7] = target: Serine/threonine-protein kinase Chk1 (Homo sapiens, UniProt O14757);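 also: measured as one member of a kinome-wide kinase profiling panel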
[8] = target: Hepatocyte growth factor receptor (Homo sapiens, UniProt P08581);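 also: kinase panel profiling across the kinome, with MET as the panel member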
[9] = target: Dual specificity mitogen-activated protein kinase kinase 1 (Homo sapiens, UniProt Q02750); assay: Navigating the Kinome. Panel member name: MAP2K1
[10] = target: Insulin-like growth factor 1 receptor (Homo sapiens, UniProt P08069); assay: Navigating the Kinome. Panel member name: IGF1R
[11] = target: cAMP-dependent protein kinase catalytic subunit PRKX (Homo sapiens, UniProt P51817)
[12] = target: Receptor-type tyrosine-protein kinase FLT3 (Homo sapiens, UniProt P36888);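 also: FLT3 was tested as one member of a kinome-wide kinase panel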
LIM domain kinase 1 = LIM domain kinase 1 (Homo sapiens, UniProt P53667); assay: Navigating the Kinome. Panel member name: LIMK1
[13] = target: Tyrosine-protein kinase JAK2 (Homo sapiens, UniProt O60674);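 also: JAK2 tested as one member of a kinase panel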
[14] = target: Mitogen-activated protein kinase 9 (Homo sapiens, UniProt P45984);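 also: value from a kinome panel profiling assay, MAPK9 panel entry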
[15] = target: Macrophage colony-stimulating factor 1 receptor (Homo sapiens, UniProt P07333);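 also: value comes from the Navigating the Kinome screening panel, CSF1R member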
[16] = target: Leucine-rich repeat serine/threonine-protein kinase 2 (Homo sapiens, UniProt Q5S007);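 also: value from a broad kinome-wide panel profiling study in which LRRK2 was one of the kinases tested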
[17] = target: Serine/threonine-protein kinase pim-1 (Homo sapiens, UniProt P11309)
[18] = target: Glycogen synthase kinase-3 beta (Homo sapiens, UniProt P49841);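 also: value comes from a broad kinome profiling panel, with GSK3B as the panel member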
[19] = target: Macrophage-stimulating protein receptor (Homo sapiens, UniProt Q04912); assay: Navigating the Kinome. Panel member name: MST1R
[20] = target: ALK tyrosine kinase receptor (Homo sapiens, UniProt Q9UM73);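 also: ALK tested as one member of a kinase panel screen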
[21] = target: Mitogen-activated protein kinase 8 (Homo sapiens, UniProt P45983);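 also: value comes from one member of a kinome-wide kinase profiling panel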
[22] = target: Tyrosine-protein kinase ABL1 (Homo sapiens, UniProt P00519)
[23] = target: Serine/threonine-protein kinase TBK1 (Homo sapiens, UniProt Q9UHD2); assay: Navigating the Kinome. Panel member name: TBK1
[24] = target: cAMP-dependent protein kinase catalytic subunit alpha (Homo sapiens, UniProt P17612)
Aurora kinase B = Aurora kinase B (Homo sapiens, UniProt Q96GD4)
[25] = target: Cyclin-dependent kinase 7 (Homo sapiens, UniProt P50613);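 also: value comes from a kinome-wide kinase profiling panel in which CDK7 is one member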
[26] = target: Mitogen-activated protein kinase 14 (Homo sapiens, UniProt Q16539);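 also: part of a kinome-wide panel, MAPK14 entry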
[27] = target: Serine/threonine-protein kinase PAK 4 (Homo sapiens, UniProt O96013);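 also: value obtained within a kinome profiling panel in which PAK4 was one of the panel members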
[28] = target: High affinity nerve growth factor receptor (Homo sapiens, UniProt P04629);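 also: NTRK1 tested as one member of a kinome-wide profiling panel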
[29] = target: Serine/threonine-protein kinase D3 (Homo sapiens, UniProt O94806);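 also: determined within a kinase panel screen, with PRKCN as the panel member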
[30] = target: Mitogen-activated protein kinase kinase kinase kinase 2 (Homo sapiens, UniProt Q12851);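 also: measured as one member of a kinome-wide kinase panel, with MAP4K2 as the panel entry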
[31] = target: Vascular endothelial growth factor receptor 2 (Homo sapiens, UniProt P35968)
[32] = target: Cyclin-dependent kinase 5 (Homo sapiens, UniProt Q00535);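 also: CDK5 measured as one member of a kinase profiling panel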
[33] = target: Tyrosine-protein kinase Fyn (Homo sapiens, UniProt P06241)
[34] = target: Proto-oncogene tyrosine-protein kinase receptor Ret (Homo sapiens, UniProt P07949);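 also: measured within a kinome-wide profiling panel, RET as the panel member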
[35] = target: 5'-AMP-activated protein kinase catalytic subunit alpha-1 (Homo sapiens, UniProt Q13131)
Aurora kinase A = Aurora kinase A (Homo sapiens, UniProt O14965);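 also: value from the Navigating the Kinome kinase panel profiling, panel entry STK6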
[36] = target: Dual specificity tyrosine-phosphorylation-regulated kinase 1A (Homo sapiens, UniProt Q13627);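 also: measured against DYRK1A as one member of a broad kinome profiling panel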
[37] = target: BDNF/NT-3 growth factors receptor (Homo sapiens, UniProt Q16620);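 also: NTRK2 measured as one member of a broad kinome-wide kinase profiling panel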
[38] = target: Dual specificity protein kinase CLK4 (Homo sapiens, UniProt Q9HAZ1)
[39] = target: Tyrosine-protein kinase receptor TYRO3 (Homo sapiens, UniProt Q06418);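 also: TYRO3 value obtained as one member of a kinome-wide profiling panel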
[40] = target: Leukocyte tyrosine kinase receptor (Homo sapiens, UniProt P29376); assay: Navigating the Kinome. Panel member name: LTK
Activated CDC42 kinase 1 = Activated CDC42 kinase 1 (Homo sapiens, UniProt Q07912); assay: Navigating the Kinome. Panel member name: ACK1
[41] = target: Dual specificity mitogen-activated protein kinase kinase 2 (Homo sapiens, UniProt P36507); assay: Navigating the Kinome. Panel member name: MAP2K2
[42] = target: Cyclin-dependent kinase 9 (Homo sapiens, UniProt P50750);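 also: value from the CDK9 entry of a kinome-spanning kinase panel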
[43] = target: Dual specificity tyrosine-phosphorylation-regulated kinase 1B (Homo sapiens, UniProt Q9Y463); assay: Navigating the Kinome. Panel member name: DYRK1B
[44] = target: Vascular endothelial growth factor receptor 1 (Homo sapiens, UniProt P17948);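 also: measured within a kinome-wide profiling panel, FLT1 as the panel member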
[45] = target: Inhibitor of nuclear factor kappa-B kinase subunit epsilon (Homo sapiens, UniProt Q14164); assay: Navigating the Kinome. Panel member name: IKBKE
[46] = target: Dual specificity protein kinase CLK2 (Homo sapiens, UniProt P49760)
[47] = target: G protein-coupled receptor kinase 5 (Homo sapiens, UniProt P34947); assay: Navigating the Kinome. Panel member name: GPRK5
[48] = target: Serine/threonine-protein kinase TAO1 (Homo sapiens, UniProt Q7L7X3)
[49] = target: Rho-associated protein kinase 1 (Homo sapiens, UniProt Q13464);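 also: measured within a broad kinome-wide panel profiling many kinases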
[50] = target: Fibroblast growth factor receptor 1 (Homo sapiens, UniProt P11362)
[51] = target: Calcium/calmodulin-dependent protein kinase type II subunit alpha (Homo sapiens, UniProt Q9UQM7); assay: Navigating the Kinome. Panel member name: CAMK2A
[52] = target: Platelet-derived growth factor receptor alpha (Homo sapiens, UniProt P16234); assay: Navigating the Kinome. Panel member name: PDGFRA
[53] = target: Neuropeptides B/W receptor type 1 (Homo sapiens, UniProt P48145); assay: human NPBW1 receptor blockade, IC50 – cell-based, fluorescence, dose response, set 6, late-stage follow-up (AID 588583)
[54] = target: Melanin-concentrating hormone receptor 1 (Homo sapiens, UniProt Q99705); assay: Late-stage fluorescence-based counterscreen for antagonists of the G-protein coupled receptor 7 (GPR7): cell-based dose response assay to identify antagonists of the melanin-concentrating hormone receptor 1 (MCHR1) Set 6.
[55] = target: Serine/threonine-protein kinase PLK1 (Homo sapiens, UniProt P53350);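 also: PLK1 measured as one member of a kinome-wide profiling panel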
[56] = target: MAP kinase-activated protein kinase 2 (Homo sapiens, UniProt P49137);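 also: measured as one member of a kinome-wide kinase panel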
[57] = target: Cyclin-dependent kinase 1 (Homo sapiens, UniProt P06493);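 also: Kinome-wide panel profiling, with the target listed as panel member CDC2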

Serine/threonine-protein kinase pim-1, sequence (P11309 whole entry): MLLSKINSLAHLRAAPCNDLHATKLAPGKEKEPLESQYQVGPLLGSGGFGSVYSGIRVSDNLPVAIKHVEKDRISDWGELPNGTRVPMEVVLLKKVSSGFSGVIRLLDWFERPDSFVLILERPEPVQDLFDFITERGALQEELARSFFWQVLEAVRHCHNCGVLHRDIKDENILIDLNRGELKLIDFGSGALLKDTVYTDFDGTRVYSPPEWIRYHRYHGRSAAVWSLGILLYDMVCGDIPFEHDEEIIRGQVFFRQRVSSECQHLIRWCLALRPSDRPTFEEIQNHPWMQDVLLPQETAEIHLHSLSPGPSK
Aurora kinase B, sequence (Q96GD4 whole entry): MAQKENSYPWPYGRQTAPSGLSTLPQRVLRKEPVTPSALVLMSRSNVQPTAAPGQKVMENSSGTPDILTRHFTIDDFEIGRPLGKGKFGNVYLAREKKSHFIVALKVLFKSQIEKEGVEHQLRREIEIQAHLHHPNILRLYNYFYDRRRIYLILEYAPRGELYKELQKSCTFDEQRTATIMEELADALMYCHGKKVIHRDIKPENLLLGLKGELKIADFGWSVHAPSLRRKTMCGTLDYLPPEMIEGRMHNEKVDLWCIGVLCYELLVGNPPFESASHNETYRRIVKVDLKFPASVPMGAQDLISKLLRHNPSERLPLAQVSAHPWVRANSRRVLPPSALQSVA
Glycogen synthase kinase-3 alpha, sequence (P49840 whole entry): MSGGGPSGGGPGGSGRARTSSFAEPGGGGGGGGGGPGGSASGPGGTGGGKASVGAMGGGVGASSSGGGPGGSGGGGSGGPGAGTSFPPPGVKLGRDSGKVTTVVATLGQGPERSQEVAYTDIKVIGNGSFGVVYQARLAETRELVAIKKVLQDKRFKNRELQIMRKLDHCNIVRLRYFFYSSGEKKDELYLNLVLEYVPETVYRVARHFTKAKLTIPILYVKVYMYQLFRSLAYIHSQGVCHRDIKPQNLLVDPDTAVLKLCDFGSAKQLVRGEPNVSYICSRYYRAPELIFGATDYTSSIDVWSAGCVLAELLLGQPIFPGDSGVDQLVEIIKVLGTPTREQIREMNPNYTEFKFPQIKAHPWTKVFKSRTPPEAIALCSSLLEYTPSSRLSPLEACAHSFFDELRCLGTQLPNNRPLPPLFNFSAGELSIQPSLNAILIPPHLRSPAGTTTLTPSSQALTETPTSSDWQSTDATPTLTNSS
G protein-coupled receptor kinase 5, sequence (P34947 whole entry): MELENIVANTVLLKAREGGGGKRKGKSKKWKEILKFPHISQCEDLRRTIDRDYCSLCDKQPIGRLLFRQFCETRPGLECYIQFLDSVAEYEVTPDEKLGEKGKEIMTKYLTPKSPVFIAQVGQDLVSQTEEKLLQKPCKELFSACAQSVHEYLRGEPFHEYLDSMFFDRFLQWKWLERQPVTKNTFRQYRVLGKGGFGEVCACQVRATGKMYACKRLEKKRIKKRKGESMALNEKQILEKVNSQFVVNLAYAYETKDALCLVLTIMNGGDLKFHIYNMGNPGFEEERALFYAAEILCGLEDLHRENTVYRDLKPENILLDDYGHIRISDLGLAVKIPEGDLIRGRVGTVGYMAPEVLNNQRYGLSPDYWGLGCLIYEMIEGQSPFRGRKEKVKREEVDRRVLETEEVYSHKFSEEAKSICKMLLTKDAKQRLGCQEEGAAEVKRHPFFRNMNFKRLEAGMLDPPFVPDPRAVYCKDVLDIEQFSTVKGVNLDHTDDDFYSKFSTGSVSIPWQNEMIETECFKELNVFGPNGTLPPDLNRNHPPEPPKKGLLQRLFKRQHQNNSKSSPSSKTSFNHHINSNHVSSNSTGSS
Serine/threonine-protein kinase TBK1, sequence (Q9UHD2 whole entry): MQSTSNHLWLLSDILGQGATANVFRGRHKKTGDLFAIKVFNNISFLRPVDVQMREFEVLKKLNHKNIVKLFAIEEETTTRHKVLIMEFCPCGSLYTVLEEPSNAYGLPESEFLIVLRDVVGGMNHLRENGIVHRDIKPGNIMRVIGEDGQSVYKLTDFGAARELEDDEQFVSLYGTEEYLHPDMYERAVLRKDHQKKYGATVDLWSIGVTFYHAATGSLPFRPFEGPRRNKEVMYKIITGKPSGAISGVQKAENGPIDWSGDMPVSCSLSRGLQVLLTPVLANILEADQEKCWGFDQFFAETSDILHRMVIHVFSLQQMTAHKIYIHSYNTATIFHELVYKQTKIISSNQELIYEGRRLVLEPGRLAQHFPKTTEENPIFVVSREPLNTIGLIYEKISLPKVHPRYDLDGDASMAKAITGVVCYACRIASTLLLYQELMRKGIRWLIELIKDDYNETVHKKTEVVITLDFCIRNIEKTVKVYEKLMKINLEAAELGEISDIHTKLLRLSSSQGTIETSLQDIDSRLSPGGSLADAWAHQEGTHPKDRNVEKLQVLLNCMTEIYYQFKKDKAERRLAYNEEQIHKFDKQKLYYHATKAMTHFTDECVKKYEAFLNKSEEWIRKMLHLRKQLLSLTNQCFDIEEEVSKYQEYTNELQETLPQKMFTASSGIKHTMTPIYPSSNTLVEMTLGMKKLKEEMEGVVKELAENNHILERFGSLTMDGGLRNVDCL
Tyrosine-protein kinase Fyn, sequence (P06241 whole entry): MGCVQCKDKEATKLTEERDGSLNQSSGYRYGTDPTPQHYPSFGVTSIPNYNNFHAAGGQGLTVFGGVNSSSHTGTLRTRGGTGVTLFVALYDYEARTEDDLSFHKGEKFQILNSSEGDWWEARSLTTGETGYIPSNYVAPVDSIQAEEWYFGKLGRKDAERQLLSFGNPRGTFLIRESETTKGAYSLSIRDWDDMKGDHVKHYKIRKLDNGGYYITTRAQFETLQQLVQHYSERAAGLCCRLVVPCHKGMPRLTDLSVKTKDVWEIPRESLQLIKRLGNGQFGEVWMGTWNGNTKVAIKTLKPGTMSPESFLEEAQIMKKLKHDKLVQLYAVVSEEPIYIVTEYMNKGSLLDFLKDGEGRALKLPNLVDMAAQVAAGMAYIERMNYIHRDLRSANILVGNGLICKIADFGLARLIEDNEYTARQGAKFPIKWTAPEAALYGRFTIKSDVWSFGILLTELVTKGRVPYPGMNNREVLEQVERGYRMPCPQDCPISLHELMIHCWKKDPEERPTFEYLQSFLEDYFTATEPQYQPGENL
Serine/threonine-protein kinase PLK1, sequence (P53350 whole entry): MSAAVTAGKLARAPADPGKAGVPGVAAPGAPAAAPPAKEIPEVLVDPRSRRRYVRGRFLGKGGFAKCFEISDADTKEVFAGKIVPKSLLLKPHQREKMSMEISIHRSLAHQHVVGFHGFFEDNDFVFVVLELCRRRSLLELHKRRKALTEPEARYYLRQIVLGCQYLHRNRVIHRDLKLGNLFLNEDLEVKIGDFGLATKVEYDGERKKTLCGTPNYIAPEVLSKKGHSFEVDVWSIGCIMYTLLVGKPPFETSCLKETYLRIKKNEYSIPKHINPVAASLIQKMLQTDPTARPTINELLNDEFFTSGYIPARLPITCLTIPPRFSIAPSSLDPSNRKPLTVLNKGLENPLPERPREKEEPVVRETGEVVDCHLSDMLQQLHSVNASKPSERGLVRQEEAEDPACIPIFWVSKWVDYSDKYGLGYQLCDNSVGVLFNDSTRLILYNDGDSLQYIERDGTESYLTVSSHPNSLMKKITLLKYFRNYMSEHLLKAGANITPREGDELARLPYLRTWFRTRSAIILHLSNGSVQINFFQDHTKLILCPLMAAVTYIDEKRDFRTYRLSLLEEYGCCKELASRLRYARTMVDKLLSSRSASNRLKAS
Tyrosine-protein kinase JAK2, sequence (O60674 whole entry): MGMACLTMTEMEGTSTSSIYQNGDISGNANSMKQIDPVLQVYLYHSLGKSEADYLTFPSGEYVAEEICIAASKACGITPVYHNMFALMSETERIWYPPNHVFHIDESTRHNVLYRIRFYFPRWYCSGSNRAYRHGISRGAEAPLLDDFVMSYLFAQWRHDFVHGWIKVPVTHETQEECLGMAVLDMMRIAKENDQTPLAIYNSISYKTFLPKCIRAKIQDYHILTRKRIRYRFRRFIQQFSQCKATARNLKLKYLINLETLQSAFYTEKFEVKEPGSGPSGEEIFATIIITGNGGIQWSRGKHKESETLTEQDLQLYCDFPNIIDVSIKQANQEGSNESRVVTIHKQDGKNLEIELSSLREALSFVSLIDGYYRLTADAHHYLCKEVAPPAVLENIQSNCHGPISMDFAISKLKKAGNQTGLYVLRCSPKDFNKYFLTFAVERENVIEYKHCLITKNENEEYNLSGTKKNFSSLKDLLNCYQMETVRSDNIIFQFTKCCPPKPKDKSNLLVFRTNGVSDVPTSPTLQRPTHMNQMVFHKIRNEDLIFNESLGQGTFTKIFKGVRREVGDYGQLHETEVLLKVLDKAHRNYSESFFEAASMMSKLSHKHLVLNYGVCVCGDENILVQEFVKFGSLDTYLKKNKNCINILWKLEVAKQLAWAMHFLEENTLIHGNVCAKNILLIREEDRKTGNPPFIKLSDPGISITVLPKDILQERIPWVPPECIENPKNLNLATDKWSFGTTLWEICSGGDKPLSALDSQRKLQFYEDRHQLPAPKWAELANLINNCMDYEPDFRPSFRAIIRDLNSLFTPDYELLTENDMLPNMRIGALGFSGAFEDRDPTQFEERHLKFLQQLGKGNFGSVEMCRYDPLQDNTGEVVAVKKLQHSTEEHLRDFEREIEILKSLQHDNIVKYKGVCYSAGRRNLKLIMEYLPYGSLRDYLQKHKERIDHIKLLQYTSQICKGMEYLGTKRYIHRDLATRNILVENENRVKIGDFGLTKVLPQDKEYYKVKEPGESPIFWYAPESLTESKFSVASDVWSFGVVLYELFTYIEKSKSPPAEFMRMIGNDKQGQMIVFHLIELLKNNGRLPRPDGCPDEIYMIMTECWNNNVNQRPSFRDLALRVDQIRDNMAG
Cyclin-dependent kinase 5, sequence (Q00535 whole entry): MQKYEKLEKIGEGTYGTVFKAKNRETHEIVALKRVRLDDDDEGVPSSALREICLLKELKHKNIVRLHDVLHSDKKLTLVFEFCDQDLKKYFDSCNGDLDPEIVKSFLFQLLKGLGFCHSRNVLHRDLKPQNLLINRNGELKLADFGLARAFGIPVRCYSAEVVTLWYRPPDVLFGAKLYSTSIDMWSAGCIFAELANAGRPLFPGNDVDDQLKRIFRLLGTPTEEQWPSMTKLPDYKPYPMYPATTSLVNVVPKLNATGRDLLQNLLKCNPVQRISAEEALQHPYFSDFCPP

With `COc1ccccc1-c1ccnc(Nc2cccc(S(C)(=O)=O)c2)n1` the Ki [1] was > 3.98 µM (inactive), the Ki (Activin receptor type-1) was 200 nM (active) and the Ki [2] was > 6.31 µM (inactive). For the same molecule, the Ki [3] was 0.316 µM (active), the Ki [4] was > 2.51 µM (inactive) and the Ki [5] was > 5.01 µM (inactive). The Ki [6] was > 5.01 µM (inactive), the Ki [7] was > 3.16 µM (inactive) and the Ki [8] was 2.51 µM (active). The Ki [9] was > 3.16 µM (inactive), the Ki [10] was > 2.51 µM (inactive) and the Ki [11] was > 3.16 µM (inactive). For the same molecule, the Ki [12] was 2.51 µM (active), the Ki (LIM domain kinase 1) was > 3.16 µM (inactive) and the Ki [13] was > 2.51 µM (inactive). The Ki [14] was 2.51 µM (active), the Ki [15] was > 2.51 µM (inactive) and the Ki [16] was 631 nM (active). The Ki [17] was > 6.31 µM (inactive), the Ki [18] was 398 nM (active) and the Ki [19] was 3.98 µM (active). For the same molecule, the Ki [20] was > 6.31 µM (inactive), the Ki [21] was 794 nM (active) and the Ki [22] was 501 nM (active). For the same molecule, the Ki [23] was > 3.16 µM (inactive), the Ki [24] was > 1.26 µM (inactive) and the Ki (Aurora kinase B) was 794 nM (active). For the same molecule, the Ki [25] was > 3.98 µM (inactive), the Ki [26] was > 3.98 µM (inactive) and the Ki [27] was > 5.01 µM (inactive). For the same molecule, the Ki [28] was > 3.16 µM (inactive), the Ki [29] was > 3.98 µM (inactive) and the Ki [30] was > 2.51 µM (inactive). The Ki [31] was 1 µM (active), the Ki [32] was 501 nM (active) and the Ki [33] was > 6.31 µM (inactive). For the same molecule, the Ki [34] was > 3.16 µM (inactive), the Ki [35] was > 3.16 µM (inactive) and the Ki (Aurora kinase A) was 398 nM (active). The Ki [36] was > 2 µM (inactive), the Ki [37] was 3.98 µM (active) and the Ki [38] was 501 nM (active). For the same molecule, the Ki [39] was 501 nM (active), the Ki [40] was > 2.51 µM (inactive) and the Ki (Activated CDC42 kinase 1) was > 3.98 µM (inactive). For the same molecule, the Ki [41] was > 3.98 µM (inactive), the Ki [42] was 31.6 nM (active) and the Ki [43] was 794 nM (active). The Ki [44] was 3.16 µM (active), the Ki [45] was > 3.16 µM (inactive) and the Ki [46] was > 3.98 µM (inactive). The Ki [47] was > 3.98 µM (inactive), the Ki [48] was 2.51 µM (active) and the Ki [49] was > 3.98 µM (inactive). The Ki [50] was 2.51 µM (active), the Ki [51] was 1 µM (active) and the Ki [52] was > 2.51 µM (inactive).

With `COc1ccc(Oc2c(Cl)cnn(CC(=O)N(c3ccccc3)C(C)C)c2=O)cc1` the IC50 [53] was 3.17 µM (active) and the IC50 [54] was 3.17 µM (active).

For `Cc1cccc(CNC(=O)c2cnn3c(-c4ccccc4)ccnc23)c1C`, the Ki [3] was 7.94 µM (active), the Ki [17] was 5.01 µM (active) and the Ki [55] was 7.94 µM (active). The Ki (Aurora kinase B) was 1580 nM (active), the Ki [56] was 2.51 µM (active) and the Ki [57] was 2.51 µM (active).

From ChEMBL document CHEMBL1201862, “PubChem BioAssay data set” (2004)
